Laboratory results reported in ChEMBL document CHEMBL5136961, “Deglycase-activity oriented screening to identify DJ-1 inhibitors” (RSC Med Chem, 2021).

target: T1, Parkinson disease protein 7 (Homo sapiens, UniProt Q99497); test: Inhibition of pET3a-His-tagged DJ1 (unknown origin) expressed in Escherichia coli BL21 assessed as decrease in esterase activity using DiFMUAc as substrate
T1 sequence (Q99497 whole entry): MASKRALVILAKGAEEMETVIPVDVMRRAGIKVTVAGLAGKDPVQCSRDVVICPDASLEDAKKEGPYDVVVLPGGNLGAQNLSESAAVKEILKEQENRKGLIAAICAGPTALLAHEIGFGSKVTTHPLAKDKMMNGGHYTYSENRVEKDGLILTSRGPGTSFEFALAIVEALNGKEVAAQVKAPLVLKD

Row | Structure (SMILES) | IC50
1 | Cc1ccc(CN2C(=O)C(=O)c3cc(Br)cc(Br)c32)cc1 | 0.676 µM
2 | COc1ccc(CN2C(=O)C(=O)c3cc(Br)cc(Br)c32)cc1 | 0.267 µM
3 | CCN1C(=O)C(=O)c2cc(F)ccc21 | 0.118 µM
4 | O=C1C(=O)N(CC2(c3ccccc3)CC2)c2ccc(F)cc21 | 0.356 µM
5 | O=C1C(Cl)c2cc(F)ccc2N1CCc1ccccc1 (stereo not drawn) | 0.085 µM
6 | O=C1N(CCc2ccccc2)c2ccc(F)cc2C1(Cl)Cl | 1.7 µM
7 | CC(C)(C)CCN1C(=O)C(=O)c2cc(F)ccc21 | 0.851 µM
8 | O=C1C=C(CCc2ccccc2)c2ccccc2C1=O | 0.18 µM
9 | C#CCOc1cc2ccccc2cc1C(=O)NC1=CC(=O)C2OC2C1O (stereo not drawn) | 0.51 µM

Further lines, results first:

Row | IC50 | Structure (SMILES)
10 | 0.701 µM | O=C1C(=O)N(CCc2ccccc2)c2ccccc21
11 | 0.0626 µM | O=C1C(=O)N(CCc2ccccc2)c2c(Br)cc(Br)cc21
12 | 2.93 µM | COc1ccc2c(c1)C(=O)C(=O)N2CCc1ccccc1
13 | 0.118 µM | O=C1C(=O)N(CCc2ccccc2)c2ccc(F)cc21
14 | 15 µM | O=C1/C(=C/Cl)c2cc(F)ccc2N1CCc1ccccc1
15 | 0.7 µM | O=C1C(F)c2cc(F)ccc2N1CCc1ccccc1 (stereo not drawn)
16 | 2.35 µM | O=C(O)Cc1ccc2c(c1)N(CCc1ccccc1)C(=O)C2=O
17 | 0.0546 µM | COc1cc(F)cc2c1N(CCc1ccccc1)C(=O)C2=O
18 | 9.79 µM | O=C(O)c1ccc2c(c1)C(=O)C(=O)N2CCc1ccccc1
